Legend:
[1] = Test D: metabolisation/inactivation of the product in rodent liver microsomes; format: in vitro ADME; conditions: 0.5 mg/ml microsomes, 10 μM test product, 1 hour at 37° C., disappearance of parent by LC/MS/MS
Method: Metabolisation/Inactivation of the Product
The products are evaluated for their capacity to be inactivated rapidly in vitro. […] The incubation medium is prepared by mixing together the following constituents: NAD (1 mM), glucose 6 phosphate (5 mM), NADP (1 mM), glucose 6 phosphate dehydrogenase (1 IU/ml), bovine serum albumin (1 mg/ml), TRIS (10 mM pH=7.6), MgCl2 (5 mM).
A concentration of 0.5 mg/ml of microsomes (Biopredic) is placed in contact with 10 μM of test product. The mixture is incubated for 1 hour at 37° C. A fraction of the preparation is taken at the initial time, to which is added an equivalent volume of ethanol (quenching of the reaction by precipitation of the proteins). The same operation is repeated after 1 hour of incubation.
The samples obtained are centrifuged at 4000 rpm for 10 minutes, and the supernatant is analysed by LC/MS/MS. The percentage of disappearance of the parent product between T0 and T60 minutes is determined by calculating the areas of the chromatographic peaks.
(§1) Potential metabolites M1 and M2 (of the compounds 1 or 2, respectively) are identified, resynthesised and evaluated for their MTP-inhibiting activity.

[2] = tested on: secretion of VLDL (hepatic MTP); assay: Test F: inhibition of secretion of VLDL in rats (triton technique); format: in vivo, Male Wistar rats; conditions: 100 mg/kg orally, between 1 hour and 6 hours after treatment, relative to controls
Method: Inhibition of Secretion of VLDL in Rats:
The inhibition of hepatic MTP by compounds 1 and 2 was evaluated from their impact on the secretion of very low density lipoproteins (VLDLs). Male Wistar rats (220-280 g) receive a standard diet and water ad libitum. On the day of the experiment, the animals (n=7) are fasted and, one hour later, are treated with the compounds (100 mg/kg orally; excipient 0.5% methylcellulose). The secretion of VLDL is measured one hour after treatment, and for 5 hours, via the triton technique (WR 1339). When it is injected into the bloodstream, triton (400 mg/kg) prevents the catabolism of the VLDLs by inhibiting their lipolysis via lipoprotein lipase and by inhibiting their uptake by tissues. Measurement of the accumulation of triglycerides (TG) and of cholesterol, which is a component of VLDLs, thus makes is it possible to reveal the secretion of VLDL by the liver.
The effect of the product on the secretion of VLDL is thus evaluated between 1 hour and 6 hours after treatment at a dose of 100 mg/kg, i.e. between 0 and 5 hours after the intravenous injection of triton. Blood samples are taken at regular intervals under gaseous anaesthesia, to assay of the triglycerides and the cholesterol. […] The levels of inhibition relative to controls not treated with the compounds are determined, and the results are collated in Table V.

[3] = tested on: secretion of apoB by HepG2 cells; assay: Test Avitro: kinetics (reversibility) of inhibition of secretion of apoB by HepG2 cells; format: cell-based, human
Method: Analyse of the Kinetics (Reversibility) of Inhibition of Secretion of apoB by HepG2 Cells:
HepG2 cells are placed in contact with the products as described in the preceding paragraph and the secretion of ApoB is measured after 6 and 24 hours. The comparison is made at equipotent dose for the inhibition of secretion of apoB after 24 hours.
Next, the products are removed from the culture medium (during changes of the medium at 0, 6, 24 and 48 hours) and the secretion of ApoB is again measured to determine the kinetics for return to normal secretion. The reversibility is judged satisfactory if the secretion, 24 hours after removal of the products, has a value greater than or equal to 70% of that of the controls (blank cells without compound).

[4] = target: T1, MTP (Mesocricetus auratus, UniProt P55158); assay: Test D: MTP-inhibiting activity of the resynthesised metabolites; format: biochemical; conditions: MTP-inhibiting activity of metabolites M1, M2 of the compound
T1 sequence (P55158 19-895): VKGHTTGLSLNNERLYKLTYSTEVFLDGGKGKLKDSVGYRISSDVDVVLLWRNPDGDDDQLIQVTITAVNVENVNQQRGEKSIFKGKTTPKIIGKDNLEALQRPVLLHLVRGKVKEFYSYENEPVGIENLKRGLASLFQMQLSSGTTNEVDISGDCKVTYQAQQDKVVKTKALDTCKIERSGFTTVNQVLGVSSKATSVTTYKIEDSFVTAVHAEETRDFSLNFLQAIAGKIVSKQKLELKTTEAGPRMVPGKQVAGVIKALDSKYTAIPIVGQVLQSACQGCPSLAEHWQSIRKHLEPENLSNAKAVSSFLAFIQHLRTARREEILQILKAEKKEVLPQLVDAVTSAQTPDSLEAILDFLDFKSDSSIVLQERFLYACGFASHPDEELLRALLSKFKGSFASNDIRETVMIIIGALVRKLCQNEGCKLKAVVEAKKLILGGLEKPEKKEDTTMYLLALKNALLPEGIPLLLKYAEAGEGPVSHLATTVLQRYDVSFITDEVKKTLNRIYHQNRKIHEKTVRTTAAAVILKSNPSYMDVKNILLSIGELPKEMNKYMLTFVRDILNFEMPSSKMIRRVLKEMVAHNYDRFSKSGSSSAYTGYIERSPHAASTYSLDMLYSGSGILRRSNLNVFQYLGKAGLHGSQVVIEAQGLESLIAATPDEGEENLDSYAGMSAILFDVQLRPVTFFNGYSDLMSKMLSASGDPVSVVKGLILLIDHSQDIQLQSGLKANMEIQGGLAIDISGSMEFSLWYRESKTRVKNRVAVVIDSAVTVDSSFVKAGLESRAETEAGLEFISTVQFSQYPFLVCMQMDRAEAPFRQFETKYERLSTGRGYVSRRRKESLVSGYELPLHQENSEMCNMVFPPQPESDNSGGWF
From the text: Thus, Test A may also be preceded or followed, preferably followed, by one or more tests of inhibition of MTP and/or of inhibition of the secretion of VLDLs and/or of inhibition of the secretion of apoB, which are similar or even identical to the Tests B and/or C, respectively, defined above, but performed this time on the plasmatic metabolites of the candidate compounds. These tests on the metabolites will be referred to hereinbelow as Test D (metabolites/MTP inhibition test) and Test E (metabolites/apoB inhibition test).
as §1

[5] = tested on: secretion of VLDL; assay: Test Avivo: duration of action of MTP inhibitors on the secretion of VLDL; format: in vivo, fatty fa/fa Zucker rats; conditions: between 6 and 8 hours after treatment
Method: Determination of the Duration of Action of MTP Inhibitors on the Secretion of VLDL
This test makes it possible to evaluate the kinetics of inhibition of MTP-inhibiting compounds on the secretion of VLDL in fatty fa/fa Zucker rats (10-12 weeks old), which is an animal model characterised by hypersecretion of VLDL. The intensity and duration of inhibition are measured via the triton technique described above over a period ranging up to 8 hours after administration of the products. Since the duration of action of a product depends both of the administered dose and on its intrinsic characteristics, it is determined at a dose of makes it possible to reach a maximum inhibition (Imax) of at least 50% over a significant time interval. The comparison of the profile of duration of action of two compounds that may have different potentials is thus performed at respective doses that allow similar Imax values to be obtained.

[6] = tested on: apoB secretion in HepG2 cells; assay: Test C: inhibition of apoB secretion in the HepG2 human cell line (sandwich ELISA); format: cell-based; conditions: 24 hours incubation, read-out: IC50 (concentration that produces a 50% inhibition of apoB secretion in the HepG2 cells)
Method: Qualitative Analysis of the Secretion of apoB in the HepG2 Human Cell Line
The activity of a compound may be evaluated by measuring the inhibition of apoB secretion in HepG2 cells.
The HepG2 cells (ECACC-No. 85011430) are used as model in the study of the in vitro hepatic secretion of lipoproteins, as described by Dixon J. and Ginsberg H. (J. Lipid. Res., (1993), 34, 167-179).
The HepG2 cells are cultured in Dulbecco's modified Eagle's medium comprising 10% foetal calf serum (DMEM and FBS-Gibco) in 96-well plates under an atmosphere of 5% carbon dioxide for 24 hours (about 70% confluence).
The test compounds are dissolved at a concentration of 2 or 10 mM in dimethyl sulfoxide (DMSO). Serial dilutions (1:3.16) are made in DMSO and are added (1:200—Robot Multimek Beckman) to the growth medium (200 μl) and then finally incubated for 24 hours in the various wells containing the HepG2 cells.
The 24-hour culture supernatant diluted to 1:5 (phosphate-buffered saline: PBS comprising 1% bovine serum albumin) is tested according to a sandwich-ELISA method specific for human apoB.
The results, presented in Table II below for compounds 1 and 2, are expressed in terms of IC50, i.e. the concentration that produces a 50% inhibition of apoB secretion in the HepG2 cells.

[7] = target: T2, microsomal triglyceride transfer protein (MTP) (Mesocricetus auratus, UniProt P55158); assay: Test B: qualitative analysis of the inhibition of MTP activity in vitro (labelled triglyceride transfer, SPA); format: biochemical, golden hamster; conditions: [3H]-triolein transfer from liposomes to LDL-biot, 18-24 hours at 37° C.; read-out: IC50 (concentration that allows a 50% inhibition of MTP)
T2 construct: The supernatant comprising the soluble MTP is dialysed; from tissue; host or cells: golden hamster liver microsomes, deoxycholate-solubilised supernatant
T2 sequence (P55158 19-895): T1 sequence (P55158 19-895)
Method: Qualitative Analysis of the Inhibition of Mtp Activity In Vitro
The inhibition of the activity of microsomal triglyceride transfer protein (MTP) was tested by using the following operating protocol.
The inhibition of MTP activity with a compound may be quantified by observing the inhibition of the transfer of a labelled triglyceride, from a donor particle to an acceptor particle, in the presence of MTP. The procedure for the preparation of MTP is based on the method by Wetterau and Zilversmit (Biochem. Biophys. Acta (1986) 875, 610). A few grams of golden hamster liver are taken and then rinsed several times in a 250 mM sucrose solution at 0° C. All the following steps proceed at +4° C. […]
The reaction mixture is prepared in untreated ½ well white plates (Corning Costar) by addition, in the following order, of: 5 μl of HEPES 50 mM, NaCl 150 mM, BSA 0.1% (w/v), 0.05% sodium azide (w/v), pH 7.4 buffer; 5 μl of liposomes; 5 μl of LDL-biot; 5 μl of test products in DMSO 5 μl of MTP. After incubation for 18-24 hours at 37° C., the reaction is stopped by adding 100 μl of Amersham SPA (Scintillation Proximity Assay) beads coupled to streptavidin, and the radioactivity is counted using a Top Count (Packard) machine at least one hour later. The inhibition of the transfer of the triglycerides with a compound is reflected by a reduction in the transferred radioactivity. […]

Metabolisation (%/hour) [1]: 88 %/hour | Activity of the metabolites [4]: M1, M2 inactive | IC50 [6]: 18 nM | IC50 [7]: 320 nM
SMILES: O=C(NC1CCN(Cc2cccnc2)CC1)c1ccccc1-c1ccc(C(F)(F)F)cc1 [Compound 1]
Inhibition of secretion of VLDL-TG [2]: −56% | Inhibition of secretion of VLDL-cholesterol [2]: −45% | Secretion of apoB 24 hours after removal of the products (% of the controls) [3]: >85% | residual inhibition of VLDL secretion [5]: absence of significant residual inhibition
